Laboratory results taken from patent US20120077831A1, “METHODS AND ASSAYS FOR THE TREATMENT OF IRRITABLE BOWEL SYNDROME” (priority 2009, published 2012).

Key:
[1] = system: patients suffering from IBS-D or IBS-A; assay: phase 2a clinical trial in IBS patients: weekly global assessment and Bristol Stool Scale; assay type: in vivo, human
Method: (§1) A randomized, double-blind, placebo-controlled phase 2a clinical trial was conducted to assess the safety and efficacy of a TPH inhibitor, (S)-2-amino-3-(4-(2-amino-6-((R)-2,2,2-trifluoro-1-(3′-methoxybiphenyl-4-yl)ethoxy)pyrimidin-4-yl)phenyl)propanoic acid, in 155 patients suffering from IBS-D or IBS-A, based on Rome III criteria. Capsules containing the compound or placebo were orally administered. Two dose levels were tested: 250 mg QID and 1000 mg QID. A two-week run-in period was used to establish baseline symptoms, followed by a 28 day randomized, double-blind treatment period. There was then a two-week follow-up period.
(§2) During the study, patients' urine and blood were obtained to assess 5-HIAA and 5-HT levels. Methods used to assess clinical endpoints were: 1) global assessment by weekly questioning regarding adequate relief of IBS pain and discomfort; and 2) Bristol Stool Scale was used to assess stool consistency by daily automated telephonic IVRS contact.

5-HIAA and 5-HT levels = assay: phase 2a clinical trial in IBS patients: blood 5-HT and 24 hour urinary 5-HIAA levels; assay type: in vivo, human; conditions: oral dosing
Method: as §1, §2

## COc1cccc(-c2ccc([C@@H](Oc3cc(-c4ccc(C[C@H](N)C(=O)O)cc4)nc(N)n3)C(F)(F)F)cc2)c1 [(S)-2-amino-3-(4-(2-amino-6-((R)-2,2,2-trifluoro-1-(3′-methoxybiphenyl-4-yl)ethoxy)pyrimidin-4-yl)phenyl)propanoic acid]
[1]; IBS patients with comparatively high baseline levels versus those without
  improvement in global response in relation to baseline serotonin levels (5-HIAA in 24 hour urine prior to dosing): greater beneficial effect in IBS patients who had comparatively high baseline levels
[1]; high dose arm (1000 mg QID, oral capsules) versus placebo, 28 day treatment period
  weekly global assessment (adequate relief of IBS pain and discomfort): statistically significant improvement versus placebo
[1]; high dose arm (1000 mg QID, oral capsules), 28 day treatment period
  stool consistency (Bristol Stool Scale): significant improvement
5-HIAA and 5-HT levels
  24 hour urinary 5-HIAA levels: significant reduction
  blood 5-HT levels: reduction
